Test results taken from patent US20070185138A1, “Imidazolopyrimidines used as fungicidal active ingredients” (priority 2004, published 2007).

Tests used:
[1] = logP determination by HPLC (EEC Directive 79/831 Annex V. A8); type: physicochemical; details: HPLC gradient method, acetonitrile/0.1% aqueous phosphoric acid
Method: The logP values were determined in accordance with EEC Directive 79/831 Annex V. A8 by HPLC (gradient method, acetonitrile/0.1% aqueous phosphoric acid).

Botrytis cinerea = experiment: Botrytis test (cucumber)/protective; type: in vivo; details: young cucumber plants, protective spray, application rate 750 g/ha, evaluation 5-6 days after inoculation
Method: • Botrytis test (cucumber)/protective • Solvent: 49 parts by weight of N,N-dimethylformamide • Emulsifier: 1 part by weight of alkylaryl polyglycol ether
To produce a suitable preparation of active compound, 1 part by weight of active compound is mixed with the stated amounts of solvent and emulsifier, and the concentrate is diluted with water to the desired concentration.
To test for protective activity, young cucumber plants are sprayed with the preparation of active compound at the stated application rate. One day aft er the treatment, the plants are inoculated with a spore suspension of Botrytis cinerea and then remain at 100% relative hunmdity and 20° C. for 48 h. The plants then remain at 96% relative atmospheric-humidity and a temperature of 10° C.
Evaluation is carried out 5-6 days after the inoculation. 0% means an efficacy which corresponds to that of the control, whereas an efficacy of 100% means that no infection is observed.

Question: For `C[Si](C)(C)CNc1nc2nccn2c(Cl)c1-c1c(F)cc(F)cc1F` [Example 1, 5-chloro-6-(2,4,6-trifluorophenyl-)-7-trimethylsilylmethylaminoimidazo[1,2-a]pyrimidine], which logP [1] is on record?
Answer: The logP was 2.09.

Question: For `CC(Nc1nc2nccn2c(Cl)c1-c1c(F)cc(F)cc1F)[Si](C)(C)C` (stereo not drawn) [Example 2, 5-chloro-6-(2,4,6-trifloropheny)-7-(1-trimethylsilylethylamino)imidazo[1,2-a]pyrimidine], which logP [1] is on record?
Answer: The logP was 2.18.

Question: And the efficacy (Botrytis cinerea)?
Answer: The efficacy was > 80%.
